Laboratory results from paper PMC6151961 (Journal of Enzyme Inhibition and Medicinal Chemistry, 2018).
Read-outs that look alike come from different tables or passages of the source.

What was measured:
[1] = RP-LC chromatographic lipophilicity (logkw); type: physicochemical; details: chromatographic lipophilicity from gradient RP-LC, Luna RP-C18, water/acetonitrile with 0.1% formic acid, 30 °C
CA IX = CA IX (Homo sapiens, UniProt Q16790); experiment: Stopped-flow CA-catalysed CO2 hydration inhibition assay; type: biochemical; details: for Ki: sulphonamides with IDs C...

`Cc1cc(S(=O)(=O)NC(=N)Nc2cccc(S(N)(=O)=O)c2)c(SCc2cccc3ccccc23)cc1Cl` [C112] gave a logkw [1] of 3.940.
For `Cc1cc(S(=O)(=O)NC(=N)Nc2ccccc2S(N)(=O)=O)c(SCc2cccc(C(F)(F)F)c2)cc1Cl` [C102], the logkw [1] was 4.430.
Compound `Cc1cc(S(=O)(=O)NC(=N)Nc2ccc(S(N)(=O)=O)cc2)c(SCc2cc3c(cc2Cl)OCO3)cc1Cl` [C120] has a logkw [1] of 4.070.
In the case of `Cc1cc(S(=O)(=O)NC(=N)Nc2nnc(S(N)(=O)=O)s2)c(SCc2ccccc2)cc1Cl` [C99], the logkw [1] is reported as 4.070.
Work on `Cc1cc(S(=O)(=O)NC(=N)NNc2ccc(S(N)(=O)=O)cc2)c(SCc2cc(=O)[nH]c3ccccc23)cc1Cl` [C118] yielded a logkw [1] of 3.770.
`Cc1cc(S(=O)(=O)NC(=N)Nc2ccc(S(N)(=O)=O)cc2)c(SCc2ccc(C(F)(F)F)cc2)cc1Cl` [C105] showed a logkw [1] of 4.550.
With `Cc1cc(S(=O)(=O)NC(=N)Nc2cccc(S(N)(=O)=O)c2)c(SCc2ccc(C(F)(F)F)cc2)cc1Cl` [C106] the logkw [1] was 4.540.
Compound `Cc1cc(S(=O)(=O)NC(=N)NNc2ccc(S(N)(=O)=O)cc2)c(SCc2ccc(C(F)(F)F)cc2)cc1Cl` [C108] has a logkw [1] of 4.460.
`Cc1cc(S(=O)(=O)NC(=N)NNc2ccc(S(N)(=O)=O)cc2)c(SCc2ccccc2)cc1Cl` [C97] showed a logkw [1] of 4.090.
In the case of `Cc1cc(S(=O)(=O)NC(=N)NCc2ccc(S(N)(=O)=O)cc2)c(SCc2ccccc2)cc1Cl` [C98], the logkw [1] is reported as 3.920, the “logKi(CA IX)” value (CA IX; logarithm of Ki (Ki in nM), mean of three determinations) is reported as 1.130 and the Ki (CA IX; read-out: Ki) is reported as 23.1 nM. It also gave a Ki (CA IX; read-out: pKi (exp.) (converted)) of 23.1 nM.
`Cc1cc(S(=O)(=O)NC(=N)NCc2ccc(S(N)(=O)=O)cc2)c(SCc2cc3c(cc2Cl)OCO3)cc1Cl` [C123] gave a logkw [1] of 3.850.
Work on `Cc1cc(S(=O)(=O)NC(=N)Nc2cccc(S(N)(=O)=O)c2)c(SCc2ccccc2)cc1Cl` [C95] yielded a logkw [1] of 3.930.
`Cc1cc(S(=O)(=O)NC(=N)Nc2ccc(S(N)(=O)=O)cc2)c(SCc2cc(=O)[nH]c3ccccc23)cc1Cl` [C115] showed a logkw [1] of 3.830.
